Laboratory results: patent publication US20040161861A1, “Glycoconjugate sensors” (priority 2002, published 2004)

Key:
Conditions in all cases: colorimetric ELISA, OD at 405 nm, FIG. 5
B. thuringiensis spores = format: binding, Bacillus thuringiensis
B. cereus spores = format: binding, Bacillus cereus
B. subtilis spores = format: binding, Bacillus subtilis
B. pumilus spores = format: binding

## Fuc α1-3 GlcNAc β-PAA-flu
B. thuringiensis spores
  binding match between spores and immobilized glycoconjugate: bound

## Fuc α 1-4 GlcNAc β-PAA-flu
B. thuringiensis spores
  binding match between spores and immobilized glycoconjugate: bound

## Gal α 1-3 GalNAc α-PAA-flu
B. cereus spores
  binding match between spores and immobilized glycoconjugate: bound

## Gal β1-3 Gal β-PAA-flu
B. subtilis spores
  binding match between spores and immobilized glycoconjugate: bound

## Gal β1-3 GalNAc β-PAA-flu
B. pumilus spores
  binding match between spores and immobilized glycoconjugate: bound

## Gal β1-3GalNAc α-PAA-flu
B. pumilus spores
  binding match between spores and immobilized glycoconjugate: bound

## Gal β 1-4 Glc β-PAA-flu
B. cereus spores
  binding match between spores and immobilized glycoconjugate: bound

## GlcNAc β 1-4 GlcNAc β-PAA-flu
B. subtilis spores
  binding match between spores and immobilized glycoconjugate: bound
